Data on 15 compounds can be found in ChEMBL document CHEMBL3991601, “The target landscape of clinical kinase drugs” (Science, 2017).

The target of assay [1] is Cyclin-dependent kinase 2 (Homo sapiens, UniProt P24941).
In assay [2] the target is Ephrin type-A receptor 4 (Homo sapiens, UniProt P54764).
Assay [3] deals with T1, Mitogen-activated protein kinase kinase kinase 3 (Homo sapiens, UniProt Q99759).
T1 sequence (Q99759 whole entry): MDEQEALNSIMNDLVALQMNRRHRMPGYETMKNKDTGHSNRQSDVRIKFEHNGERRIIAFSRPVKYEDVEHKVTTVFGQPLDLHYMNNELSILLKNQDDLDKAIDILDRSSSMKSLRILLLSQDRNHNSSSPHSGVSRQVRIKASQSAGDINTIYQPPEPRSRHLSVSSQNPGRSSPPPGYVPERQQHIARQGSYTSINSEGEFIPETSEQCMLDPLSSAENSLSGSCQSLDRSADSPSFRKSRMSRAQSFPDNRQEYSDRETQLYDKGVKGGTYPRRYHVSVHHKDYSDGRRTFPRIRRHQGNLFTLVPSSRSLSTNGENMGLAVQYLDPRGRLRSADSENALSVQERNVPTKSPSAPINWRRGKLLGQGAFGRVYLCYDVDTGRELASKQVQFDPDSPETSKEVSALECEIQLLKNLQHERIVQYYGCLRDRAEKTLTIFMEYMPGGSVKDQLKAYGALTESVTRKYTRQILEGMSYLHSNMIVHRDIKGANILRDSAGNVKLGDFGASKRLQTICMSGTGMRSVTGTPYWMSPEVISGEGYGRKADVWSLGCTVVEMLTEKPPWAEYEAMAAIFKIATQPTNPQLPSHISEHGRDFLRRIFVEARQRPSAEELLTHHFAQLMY

For assay [4], the target named is T2, Mitogen-activated protein kinase kinase kinase 5 (Homo sapiens, UniProt Q99683).
T2 sequence (Q99683 whole entry): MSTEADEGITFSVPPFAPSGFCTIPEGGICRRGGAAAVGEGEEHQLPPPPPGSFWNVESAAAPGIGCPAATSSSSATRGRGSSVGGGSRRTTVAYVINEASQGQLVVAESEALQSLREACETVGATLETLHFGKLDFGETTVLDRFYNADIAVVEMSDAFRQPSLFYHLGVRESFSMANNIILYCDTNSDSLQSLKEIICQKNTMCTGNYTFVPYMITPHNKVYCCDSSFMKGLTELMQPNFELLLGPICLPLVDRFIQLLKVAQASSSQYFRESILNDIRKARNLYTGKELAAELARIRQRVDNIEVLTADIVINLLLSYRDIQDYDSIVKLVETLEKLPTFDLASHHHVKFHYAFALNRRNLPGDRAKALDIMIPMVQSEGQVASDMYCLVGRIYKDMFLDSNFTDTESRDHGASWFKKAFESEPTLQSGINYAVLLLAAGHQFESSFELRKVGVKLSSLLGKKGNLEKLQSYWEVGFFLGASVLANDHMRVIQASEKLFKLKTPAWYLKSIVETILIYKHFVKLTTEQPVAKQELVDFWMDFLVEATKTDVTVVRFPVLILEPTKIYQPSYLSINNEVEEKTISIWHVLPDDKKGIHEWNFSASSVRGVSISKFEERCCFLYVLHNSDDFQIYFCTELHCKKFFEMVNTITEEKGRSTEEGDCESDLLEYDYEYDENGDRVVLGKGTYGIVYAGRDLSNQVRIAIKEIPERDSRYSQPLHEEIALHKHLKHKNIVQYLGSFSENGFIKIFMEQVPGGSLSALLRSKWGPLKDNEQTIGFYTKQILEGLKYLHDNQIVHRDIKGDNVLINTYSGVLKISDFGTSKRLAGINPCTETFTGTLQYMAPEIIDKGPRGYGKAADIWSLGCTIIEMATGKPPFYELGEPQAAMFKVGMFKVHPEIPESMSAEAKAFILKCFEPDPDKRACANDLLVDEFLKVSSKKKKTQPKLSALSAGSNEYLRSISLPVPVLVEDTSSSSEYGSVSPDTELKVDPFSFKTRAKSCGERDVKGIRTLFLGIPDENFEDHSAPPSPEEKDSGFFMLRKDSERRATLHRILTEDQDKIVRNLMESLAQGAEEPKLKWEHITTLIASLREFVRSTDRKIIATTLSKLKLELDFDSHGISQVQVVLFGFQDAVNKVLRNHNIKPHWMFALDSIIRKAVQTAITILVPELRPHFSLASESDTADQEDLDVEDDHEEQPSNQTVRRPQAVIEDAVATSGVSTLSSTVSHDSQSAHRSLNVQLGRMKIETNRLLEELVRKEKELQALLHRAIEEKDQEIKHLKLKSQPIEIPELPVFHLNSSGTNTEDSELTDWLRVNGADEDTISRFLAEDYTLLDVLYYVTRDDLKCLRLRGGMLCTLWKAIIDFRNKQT

The target of assay [5] is cAMP-dependent protein kinase catalytic subunit beta (Homo sapiens, UniProt P22694).
The target in assay [6] is T3, Serine/threonine-protein kinase 4 (Homo sapiens, UniProt Q13043).
T3 sequence (Q13043 whole entry): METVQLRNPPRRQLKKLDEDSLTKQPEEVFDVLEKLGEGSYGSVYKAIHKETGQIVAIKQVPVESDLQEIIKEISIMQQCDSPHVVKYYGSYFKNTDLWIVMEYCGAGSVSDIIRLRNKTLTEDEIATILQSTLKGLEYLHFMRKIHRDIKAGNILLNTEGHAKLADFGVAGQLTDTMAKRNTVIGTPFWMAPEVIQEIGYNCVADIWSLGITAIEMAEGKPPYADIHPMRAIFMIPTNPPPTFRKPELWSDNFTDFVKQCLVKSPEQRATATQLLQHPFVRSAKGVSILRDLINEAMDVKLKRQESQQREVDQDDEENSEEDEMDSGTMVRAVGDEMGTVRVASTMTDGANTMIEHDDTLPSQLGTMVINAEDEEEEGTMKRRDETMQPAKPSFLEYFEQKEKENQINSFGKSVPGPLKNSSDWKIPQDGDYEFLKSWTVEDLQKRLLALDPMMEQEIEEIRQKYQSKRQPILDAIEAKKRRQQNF

Assay [7] concerns the target Platelet-derived growth factor receptor beta (Homo sapiens, UniProt P09619).
In assay [8] the target is Glycogen synthase kinase-3 alpha (Homo sapiens, UniProt P49840).

The source made the active and inactive calls. Rule as the data show it, for most assays here: actives have a measured Kd and inactives only a lower limit.
Also: in the data inactive means no Kd found up to 30 µM.

Chain of Ephrin type-A receptor 4 (P54764 whole entry): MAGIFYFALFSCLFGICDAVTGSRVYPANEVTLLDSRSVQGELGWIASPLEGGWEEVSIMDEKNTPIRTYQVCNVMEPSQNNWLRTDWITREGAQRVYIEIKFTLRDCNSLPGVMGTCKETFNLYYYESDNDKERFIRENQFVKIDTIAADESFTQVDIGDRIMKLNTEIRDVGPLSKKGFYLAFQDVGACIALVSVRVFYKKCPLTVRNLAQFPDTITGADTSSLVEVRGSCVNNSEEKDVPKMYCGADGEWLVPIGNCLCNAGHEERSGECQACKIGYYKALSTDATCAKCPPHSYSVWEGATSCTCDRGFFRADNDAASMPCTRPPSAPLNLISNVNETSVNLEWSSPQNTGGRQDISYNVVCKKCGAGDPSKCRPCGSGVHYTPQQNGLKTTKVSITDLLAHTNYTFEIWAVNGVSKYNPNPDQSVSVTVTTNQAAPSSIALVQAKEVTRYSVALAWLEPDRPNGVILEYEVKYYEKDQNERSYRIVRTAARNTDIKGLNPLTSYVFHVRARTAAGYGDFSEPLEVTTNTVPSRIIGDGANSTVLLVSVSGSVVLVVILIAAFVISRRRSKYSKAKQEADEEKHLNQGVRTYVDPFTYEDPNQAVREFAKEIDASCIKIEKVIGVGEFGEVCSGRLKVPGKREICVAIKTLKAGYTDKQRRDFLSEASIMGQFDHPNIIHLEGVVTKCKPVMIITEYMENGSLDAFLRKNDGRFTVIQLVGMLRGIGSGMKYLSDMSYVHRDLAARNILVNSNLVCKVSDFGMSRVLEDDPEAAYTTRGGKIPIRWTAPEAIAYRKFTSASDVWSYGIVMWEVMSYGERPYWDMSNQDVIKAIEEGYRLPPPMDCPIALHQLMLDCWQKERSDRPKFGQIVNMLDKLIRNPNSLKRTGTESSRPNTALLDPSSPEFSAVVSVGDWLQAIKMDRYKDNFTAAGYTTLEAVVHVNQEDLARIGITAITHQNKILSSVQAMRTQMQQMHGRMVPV
Chain of Platelet-derived growth factor receptor beta (P09619 whole entry): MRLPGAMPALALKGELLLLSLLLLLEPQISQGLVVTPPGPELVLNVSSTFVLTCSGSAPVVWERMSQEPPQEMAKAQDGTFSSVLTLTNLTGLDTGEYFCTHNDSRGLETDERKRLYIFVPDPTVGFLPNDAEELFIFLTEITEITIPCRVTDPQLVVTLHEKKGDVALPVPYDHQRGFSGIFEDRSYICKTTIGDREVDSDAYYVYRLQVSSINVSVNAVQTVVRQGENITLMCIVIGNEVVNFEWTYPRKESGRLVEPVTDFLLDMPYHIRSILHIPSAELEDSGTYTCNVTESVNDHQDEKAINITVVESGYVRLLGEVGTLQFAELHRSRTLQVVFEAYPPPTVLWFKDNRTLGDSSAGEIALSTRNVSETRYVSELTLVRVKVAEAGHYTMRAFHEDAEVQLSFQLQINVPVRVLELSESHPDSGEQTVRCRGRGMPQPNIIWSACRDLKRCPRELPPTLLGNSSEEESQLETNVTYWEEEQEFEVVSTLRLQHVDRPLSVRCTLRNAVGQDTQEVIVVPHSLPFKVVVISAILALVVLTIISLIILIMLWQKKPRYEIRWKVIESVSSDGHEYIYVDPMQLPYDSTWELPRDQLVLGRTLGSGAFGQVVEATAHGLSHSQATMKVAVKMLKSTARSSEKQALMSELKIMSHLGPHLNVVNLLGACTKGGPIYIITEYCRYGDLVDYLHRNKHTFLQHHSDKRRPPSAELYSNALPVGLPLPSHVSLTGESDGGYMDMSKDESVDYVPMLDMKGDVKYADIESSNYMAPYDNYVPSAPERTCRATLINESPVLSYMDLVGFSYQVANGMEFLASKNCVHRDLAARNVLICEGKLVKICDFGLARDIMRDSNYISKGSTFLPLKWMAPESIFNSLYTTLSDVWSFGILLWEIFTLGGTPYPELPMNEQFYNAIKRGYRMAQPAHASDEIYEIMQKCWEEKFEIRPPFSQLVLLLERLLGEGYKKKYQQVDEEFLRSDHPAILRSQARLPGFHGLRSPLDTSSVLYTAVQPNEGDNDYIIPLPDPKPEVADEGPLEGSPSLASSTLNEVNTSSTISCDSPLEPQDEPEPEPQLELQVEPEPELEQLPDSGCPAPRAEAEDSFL
Chain of Glycogen synthase kinase-3 alpha (P49840 whole entry): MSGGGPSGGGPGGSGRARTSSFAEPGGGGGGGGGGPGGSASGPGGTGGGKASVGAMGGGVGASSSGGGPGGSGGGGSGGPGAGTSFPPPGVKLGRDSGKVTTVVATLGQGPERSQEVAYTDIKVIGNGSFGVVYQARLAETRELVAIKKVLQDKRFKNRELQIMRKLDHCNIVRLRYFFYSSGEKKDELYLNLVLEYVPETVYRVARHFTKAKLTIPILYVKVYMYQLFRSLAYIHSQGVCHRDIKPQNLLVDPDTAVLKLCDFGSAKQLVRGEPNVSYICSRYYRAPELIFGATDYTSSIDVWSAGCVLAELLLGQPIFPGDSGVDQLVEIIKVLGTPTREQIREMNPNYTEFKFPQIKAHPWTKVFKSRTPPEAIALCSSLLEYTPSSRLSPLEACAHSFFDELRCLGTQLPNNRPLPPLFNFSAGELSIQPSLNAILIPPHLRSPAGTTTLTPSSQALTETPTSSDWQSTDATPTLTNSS

The Kd is the free concentration of one partner at which half of the binding sites on the other are occupied at equilibrium, for simple one-to-one binding. Take `CCN(CCCOc1ccc2c(Nc3cc(CC(=O)Nc4cccc(F)c4)n[nH]3)ncnc2c1)CCOP(=O)(O)O` [BARASERTIB]: the Kd in assay [1], in assay [2], in assay [3], in assay [4], in assay [5] and in assay [6] was > 30 µM (inactive) in each case.

Take `C=CCn1c(=O)c2cnc(Nc3ccc(N4CCN(C)CC4)cc3)nc2n1-c1cccc(C(C)(C)O)n1` [ADAVOSERTIB]: the Kd in assay [1], in assay [2], in assay [3], in assay [4], in assay [7] and in assay [5] was > 30 µM (inactive) in each case. Moreover, the Kd in assay [6] is > 30 µM (inactive).

For the compound `CN1CCN(c2nc(C3=C(c4c[nH]c5ccccc45)C(=O)NC3=O)c3ccccc3n2)CC1` [SOTRASTAURIN], the Kd in assay [1] is > 30 µM (inactive); in assay [2] it was > 30 µM (inactive); in assay [8], 1.2 µM (active); in assay [3], > 30 µM (inactive); in assay [4] it was > 30 µM (inactive); in assay [5] it was > 30 µM (inactive). In assay [6], the Kd was > 30 µM (inactive).

For the compound `CCN1CCN(Cc2ccc(Nc3ncc(F)c(-c4cc(F)c5nc(C)n(C(C)C)c5c4)n3)nc2)CC1` [ABEMACICLIB], the Kd is > 30 µM (inactive) in assay [2]; 0.013 µM (active) in assay [8]; > 30 µM (inactive) in assay [3]; > 30 µM (inactive) in assay [4]; > 30 µM (inactive) in assay [7]; > 30 µM (inactive) in assay [5]. Moreover, the Kd in assay [6] was > 30 µM (inactive).

Consider `Cc1cc(C(=O)Nc2cc(Oc3ccc4nc(NC(=O)C5CC5)cn4n3)ccc2C)n(C)n1` [TAK-593], for which the Kd in assay [1], in assay [2], in assay [8], in assay [3], in assay [4] and in assay [5] was > 30 µM (inactive) each time. In addition, the Kd in assay [6] was > 30 µM (inactive).

For the compound `CC1(COc2ccc3c(c2)ncn3-c2ccc3cccc(N4CCC(N)CC4)c3n2)COC1` [CRENOLANIB], the dissociation constant Kd in assay [1] is 0.128 µM (active); in assay [2], > 30 µM (inactive); in assay [8] it was > 30 µM (inactive); in assay [3] it was > 30 µM (inactive); in assay [4] it was > 30 µM (inactive); in assay [5], > 30 µM (inactive). In addition, in assay [6], the equilibrium dissociation constant (Kd) was 0.702 µM (active).

With `CN(c1ncccc1CNc1nc(Nc2ccc3c(c2)CC(=O)N3)ncc1C(F)(F)F)S(C)(=O)=O` [PF-00562271], the Kd in assay [1] was 1.07 µM (active); in assay [2] it was > 30 µM (inactive); in assay [8], 0.845 µM (active); in assay [3], > 30 µM (inactive); in assay [4] it was > 30 µM (inactive); in assay [5], > 30 µM (inactive). The equilibrium dissociation constant (Kd) in assay [6] was 5.93 µM (active).

For `c1cc(OCCN2CCCCC2)cc(-c2n[nH]c3ccc(-c4nc[nH]n4)cc23)c1` [CC-401], the Kd in assay [2], in assay [8], in assay [3], in assay [4], in assay [7] and in assay [5] was > 30 µM (inactive) throughout. In addition, the Kd in assay [6] was > 30 µM (inactive).

For `CC(C)CC(=O)Nc1[nH]nc2c1CN(C(=O)C1CCN(C)CC1)C2(C)C` [PHA-793887], the Kd in assay [2] was > 30 µM (inactive); in assay [8], 0.029 µM (active); in assay [3] it was > 30 µM (inactive); in assay [4], > 30 µM (inactive); in assay [7], > 30 µM (inactive); in assay [5], > 30 µM (inactive). The Kd in assay [6] is > 30 µM (inactive).

In the case of `COc1cc2ncnc(Nc3ccc(O)cc3)c2cc1OC` [WHI-P131], the Kd in assay [2], in assay [8], in assay [3], in assay [4], in assay [7] and in assay [5] was > 30 µM (inactive) throughout. For the same compound, the Kd in assay [6] was > 30 µM (inactive).

In the case of `C=CC(=O)Nc1cccc(Nc2nc(Nc3ccc(N4CCN(C(C)=O)CC4)cc3OC)ncc2C(F)(F)F)c1` [ROCILETINIB], the Kd in assay [1], in assay [2], in assay [8], in assay [3], in assay [4] and in assay [7] was > 30 µM (inactive) in each case. In assay [6], the Kd is > 30 µM (inactive).

For `O=S(=O)(c1cccc2cnccc12)N1CCCNCC1` [FASUDIL], the Kd in assay [2], in assay [3], in assay [4], in assay [7] and in assay [6] was > 30 µM (inactive) each time.

With `N#CCNC(=O)c1ccc(-c2ccnc(Nc3ccc(N4CCOCC4)cc3)n2)cc1` [MOMELOTINIB], the Kd in assay [2], in assay [8], in assay [3], in assay [4], in assay [7] and in assay [5] was > 30 µM (inactive) each time. For the same compound, the Kd in assay [6] is > 30 µM (inactive).

Regarding `C[C@]1(O)C[C@@H](c2nc(-c3ccc4ccc(-c5ccccc5)nc4c3)c3c(N)nccn32)C1` [LINSITINIB], the Kd in assay [2], in assay [3], in assay [4], in assay [7], in assay [5] and in assay [6] was > 30 µM (inactive) each time.

Regarding `Cn1c(=O)n(-c2ccc(C(C)(C)C#N)cc2)c2c3cc(-c4cnc5ccccc5c4)ccc3ncc21` [DACTOLISIB], the Kd in assay [1], in assay [2], in assay [3], in assay [4], in assay [5] and in assay [6] was > 30 µM (inactive) in each case.
